Measured values as given in patent US10029994B2, “Isoxazole hydroxamic acid compounds as LpxC inhibitors” (priority 2014, dated 2018).
Where two headings read alike, the source gives them in different places.

Tests used:
E. C. ATCC 25922 = assay: MIC, broth microdilution (CLSI); assay type: cell-based, Escherichia coli; conditions: Escherichia coli, ATCC25922, 20 h, read-out: E. C. ATCC 25922 MIC
Protocol: (§1) Bacterial isolates were cultivated from −70° C. frozen stocks by two consecutive overnight passages at 35° C. in ambient air on 5% blood agar (Remel, Lenexa, Kans.). Quality control strain, P. aeruginosa ATCC 27853, A. baumannii ATCC19606 and E. coli ATCC 25922 are from the American Type Culture Collection (ATCC; Rockville, Md.) and PAO1 was received from Dr. K. Poole.
(§2) Minimal Inhibitory Concentrations (MICs) were determined by the broth microdilution method in accordance with Clinical and Laboratories Institute (CLSI) guidelines (CLSI M100-S25, Performance Standards for Antimicrobial Susceptibility Testing; Twenty-fifth Informational Supplement). In brief, fresh bacterial overnight cultures were resuspended in sterile saline, adjusted to a 0.5 McFarland turbidity standard and then diluted 2000-fold in cation adjusted Mueller-Hinton Broth II (MHB; Remel BBL) to yield a final inoculum of approximately 5×10^5 colony-forming units (CFU)/mL. Two-fold serial dilutions of compounds were prepared in 100% dimethyl sulfoxide (DMSO) at 100-fold the highest final assay concentration; the resulting dilution series of compounds were diluted 1:10 with sterile water. Ten μl of the drug dilution series in 10% DMSO was transferred to microtiter wells and 90 μl of bacterial suspension was inoculated into the wells. For testing the ability of compounds to potentiate the activity of known antibiotics, the assay was modified as follows; known antibiotics were added to the bacterial inoculum at 1.1-fold the final assay concentration indicated in Table A. All inoculated microdilution trays were incubated in ambient air at 35° C. for 20 hours. Following incubation, assay plates were read in a microtiter plate reader at 600 nm and visually inspected to confirm the MIC endpoint well with the OD value. The lowest concentration of the compound that prevented visible growth was recorded as the MIC. Performance of the assay was monitored by testing ciprofloxacin against the laboratory quality control strain in accordance with guidelines of the CLSI.

P. aeruginosa LpxC = target: T1, P. aeruginosa LpxC (Pseudomonas aeruginosa, UniProt P47205); assay: P. aeruginosa LpxC Inhibition Assay (LC-MS/MS); assay type: biochemical; conditions: 1 nM P. aeruginosa LpxC, 30 min pre-incubation, 2 μM UDP-3-O-(R-3-hydroxydecanoyl)-GlcNAc, pH 7.5
T1 construct: made in house
T1 sequence (P47205 1-303): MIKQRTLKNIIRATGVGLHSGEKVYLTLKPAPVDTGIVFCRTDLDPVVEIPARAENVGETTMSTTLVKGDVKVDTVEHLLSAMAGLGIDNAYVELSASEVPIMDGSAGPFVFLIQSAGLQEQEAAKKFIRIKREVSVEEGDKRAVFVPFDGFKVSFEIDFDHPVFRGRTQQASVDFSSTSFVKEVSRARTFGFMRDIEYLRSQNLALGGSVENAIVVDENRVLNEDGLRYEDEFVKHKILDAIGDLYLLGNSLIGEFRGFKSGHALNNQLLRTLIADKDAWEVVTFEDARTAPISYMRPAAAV
From the text: P. aeruginosa LpxC Inhibition Assay
The P. aeruginosa LpxC protein is produced according to the general method of Hyland et al (Journal of Bacteriology 1997 179, 2029-2037: Cloning, expression and purification of UDP-3-O-acyl-GlcNAc deacetylase from Pseudomonas aeruginosa: a metalloamidase of the lipid A biosynthesis pathway). The LC-MS/MS method for quantitation of LpxC product was developed using an Agilent 1200 Capillary HPLC system coupled to an Applied Biosystems MDS Sciex 4000QTRAP mass spectrometer. Both instruments are controlled using the Applied Biosystems MDS Sciex Analyst software. LpxC reaction product (UDP-3-O—(R-3-hydroxyacyl)-glucosamine) was produced by hydrolysis of LpxC substrate catalyzed by P.a. LpxC and purified using reversed phase chromatography on a Phenomenex Luna C18(2) 4.6×50 mm column. An LpxC product calibration curve was generated to evaluate the sensitivity and dynamic range of the LC-MS/MS method. Briefly, compounds are pre-incubated with 1 nM P. aeruginosa LpxC for 30 min. at room temperature. Reactions are initiated by the addition of 2 μM UDP-3-O—(R-3-hydroxydecanoyl)-GlcNAc. Reactions are conducted in a 384-well plate with a total volume of 50 μL in each well containing 50 mM Sodium phosphate pH 7.5, 0.005% Trition X-100 for 20 min at room temperature. After quenching with 1.8% HOAc (5 μL of a 20% HOAc added to each well), reaction mixtures are analyzed using the LC-MS/MS method and peak areas are transformed into product concentration using a LpxC product calibration curve. Total activity (0% inhibition control) is obtained from reactions with no inhibitors and 100% inhibition control is the background using quenched samples before reaction starts. For IC50 determinations, peak areas are converted to percent inhibition in Microsoft Excel. Percent inhibition values are plotted vs. log compound concentration using XLfit. Data is fit to the four-parameter logistic equation using the non-linear regression algorithm in XLfit to return the IC50 and hill slope values.

A. B. ATCC 19606 [1] = assay: MIC in the presence of sub-inhibitory rifampicin (potentiation/synergy); assay type: cell-based, Acinetobacter baumannii; conditions: +2 μg/ml rifampicin (RIF); broth microdilution, 35° C., 20 hours
Protocol: as §1, §2

P. A. PAO1 NB52019 = assay: MIC, broth microdilution (CLSI); assay type: cell-based, Pseudomonas aeruginosa; conditions: Pseudomonas aeruginosa, read-out: P. A. PAO1 NB52019 MIC
Protocol: as §1, §2

E. C. ATCC 29522 = assay: MIC in the presence of sub-inhibitory rifampicin (potentiation/synergy); assay type: cell-based, Escherichia coli; conditions: +2 μg/ml rifampicin (RIF); broth microdilution, 35° C., 20 hours
Protocol: as §1, §2

A. B. ATCC 19606 [2] = assay: MIC, broth microdilution (CLSI); assay type: cell-based, Acinetobacter baumannii; conditions: Acinetobacter baumannii, read-out: A. B. ATCC 19606 MIC
Protocol: as §1, §2

[3] = broth microdilution, 35° C., 20 hours
[4] = PAO1, broth microdilution, 35° C., 20 hours
[5] = ATCC19606, broth microdilution, 35° C., 20 hours

SMILES	MIC (E. C. ATCC 25922) [µg/mL]	IC50 (P. aeruginosa LpxC) [nM]	A. B. ATCC 19606 (+2 μg/ml RIF) MIC (A. B. ATCC 19606 [1]) [µg/mL]	MIC (P. A. PAO1 NB52019; PAO1, 20 h) [µg/mL]	E. C. ATCC 29522 (+2 μg/ml RIF) MIC (E. C. ATCC 29522) [µg/mL]	MIC (A. B. ATCC 19606 [2]; ATCC19606, 20 h) [µg/mL]	MIC (E. C. ATCC 25922; [3]) [µg/mL]	MIC (P. A. PAO1 NB52019; [4]) [µg/mL]	MIC (A. B. ATCC 19606 [2]; [5]) [µg/mL]
Cc1cc([C@H](O)[C@](C)(NCc2cc(C#CC3CC3)on2)C(=O)NO)no1 [Compound 3.1, (2S,3R)-2-(((5-(cyclopropylethynyl)isoxazol-3-yl)methyl)amino)-N,3-dihydroxy-2-methyl-3-(5-methylisoxazol-3-yl)propanamide]	1	< 1	≤0.06	0.5	≤0.06	> 64			
Cc1cc([C@H](O)[C@](C)(NCc2cc(C#CC3CCC3)on2)C(=O)NO)no1 [Compound 3.2, (2S,3R)-2-(((5-(cyclobutylethynyl)isoxazol-3-yl)methyl)amino)-N,3-dihydroxy-2-methyl-3-(5-methylisoxazol-3-yl)propanamide]		< 1	≤0.06		0.5		1	1	> 64
Cc1cc([C@H](O)[C@](C)(NCc2cc(C#Cc3ccccc3)on2)C(=O)NO)no1 [Compound 3.3, (2S,3R)—N,3-dihydroxy-2-methyl-3-(5-methylisoxazol-3-yl)-2-(((5-(phenylethynyl)isoxazol-3-yl)methyl)amino)propanamide]		< 1	≤0.06		0.06		≤ 0.06	0.25	64
CC(NCc1cc(C#Cc2ccccc2)on1)(C(=O)NO)C(O)c1cc(CO)on1 (stereo not drawn) [Compound 3.4, N,3-dihydroxy-3-(5-(hydroxymethyl)isoxazol-3-yl)-2-methyl-2-(((5-(phenylethynyl)isoxazol-3-yl)methyl)amino)propanamide]		< 1	0.125		≤0.06		1	0.5	> 64
COCCCCC#Cc1cc(CN[C@](C)(C(=O)NO)[C@@H](O)c2cc(C)on2)no1 [Compound 3.5, (2S,3R)—N,3-dihydroxy-2-(((5-(6-methoxyhex-1-yn-1-yl)isoxazol-3-yl)methyl)amino)-2-methyl-3-(5-methylisoxazol-3-yl)propanamide]		3	1		2		16	16	32
CC(NCc1cc(C#CC2CC2)on1)(C(=O)NO)C(O)c1cc(C2CC2)on1 (stereo not drawn) [Compound 3.6, 2-(((5-(cyclopropylethynyl)isoxazol-3-yl)methyl)amino)-3-(5-cyclopropylisoxazol-3-yl)-N, 3-dihydroxy-2-methylpropanamide]		2	0.125		0.5		2	4	64
CC/C=C/c1cc(CC[C@](C)(C(=O)NO)S(C)(=O)=O)no1 [Compound 4.1, (R,E)-4-(5-(but-1-en-1-yl)isoxazol-3-yl)-N-hydroxy-2-methyl-2-(methylsulfonyl)butanamide]		< 1	1		0.125		8	0.5	> 64
C/C=C(\C)c1cc(CC[C@](C)(C(=O)NO)S(C)(=O)=O)no1 [Compound 4.3-1, (R,E)-4-(5-(but-2-en-2-yl)isoxazol-3-yl)-N-hydroxy-2-methyl-2-(methylsulfonyl)butanamide]	32	3	8	2	0.5	> 64			
C[C@@](CCc1cc(/C(F)=C/C2CC2)on1)(C(=O)NO)S(C)(=O)=O [Compound 4.5-1, (R,Z)-4-(5-(2-cyclopropyl-1-fluorovinyl)isoxazol-3-yl)-N-hydroxy-2-methyl-2-(methylsulfonyl)butanamide]		< 1	0.25		0.25		2	0.25	> 64
C[C@@](CCc1cc(/C=C(\F)C2CC2)on1)(C(=O)NO)S(C)(=O)=O [Compound 4.7, (R,Z)-4-(5-(2-cyclopropyl-2-fluorovinyl)isoxazol-3-yl)-N-hydroxy-2-methyl-2-(methylsulfonyl)butanamide]		< 1	0.5		0.5		8	0.5	> 64
C[C@@](CCc1cc(C2=CCCCC2)on1)(C(=O)NO)S(C)(=O)=O [Compound 4.8, (R)-4-(5-(cyclohex-1-en-1-yl)isoxazol-3-yl)-N-hydroxy-2-methyl-2-(methylsulfonyl)butanamide]		< 1	1		0.5		4	0.25	> 64
